Assay results: ChEMBL document CHEMBL5550130, “Discovery of harmiprims, harmine-primaquine hybrids, as potent and selective anticancer and antimalarial compounds” (Bioorg Med Chem, 2024)
The source made the active and inactive calls. No cut-off for these calls is given here.

Key:
SW-620 = test: Antiproliferative activity against human SW620 cells assessed as reduction in cell viability incubated for 72 hrs by MTT assay; type: functional, cell-based; details: SW-620, 72 h
RNA [1] = test: Binding affinity to double stranded RNA (unknown origin) assessed as thermal stabilization by thermal denaturation based UV-Visible absorption spectroscopic analysis; type: nucleic-acid assay
[2] = Selectivity index, ratio of IC50 for antiproliferative activity against human HEK293T cells to IC50 for antiplasmodial activity against erythrocytic stage of chloroquine-sensitive Plasmodium falciparum 3D7; type: toxicity, cell-based; details: read-out: Ratio IC50
Plasmodium falciparum [3] = test: Resistance index, ratio of IC50 for antiplasmodial activity against erythrocytic stage of chloroquine-resistant Plasmodium falciparum Dd2 to IC50 for antiplasmodial activity against erythrocytic stage of chloroquine-sensitive Plasmodium falciparum 3D7; type: functional
HCT-116 = test: Antiproliferative activity against human HCT-116 cells assessed as reduction in cell viability incubated for 72 hrs by MTT assay; type: functional, cell-based; details: HCT-116, 72 h
MCF7 [4] = test: Induction of cell cycle arrest in human MCF7 cells assessed as increase in accumulation of cells at G1 phase at 0.75 uM measured after 48 hrs by propidium iodide/RNAse A staining based cell sorter analysis; type: functional
dsDNA [5] = test: Binding affinity to double stranded DNA (unknown origin) assessed as increase in fluorescence intensity by fluorescence quenching analysis; type: nucleic-acid assay
Plasmodium berghei [6] = test: Antiplasmodial activity against hepatic stage of Plasmodium berghei sporozoites infected in human Huh-7 cells assessed as reduction in parasite growth at 1 uM incubated for 1 hr by bioluminescence assay; type: functional, organism-based
RNA [7] = test: Binding affinity to double stranded RNA (unknown origin) assessed as increase in fluorescence intensity by fluorescence quenching analysis; type: nucleic-acid assay
Huh-7 [8] = test: Cytotoxicity against human Huh-7 cells infected with Plasmodium berghei sporozoites at 10 uM by alamar blue staining based assay; type: functional, cell-based
Plasmodium berghei [9] = test: Antiplasmodial activity against hepatic stage of Plasmodium berghei sporozoites infected in human Huh-7 cells assessed as reduction in parasite growth at 10 uM incubated for 1 hr by bioluminescence assay; type: functional, organism-based
Plasmodium falciparum [10] = test: Antiplasmodial activity against erythrocytic stage of chloroquine-sensitive Plasmodium falciparum 3D7 assessed as inhibition of parasite growth incubated for 3 days by HRP2-ELISA; type: functional, organism-based; details: 3D7, 72 h
Calf thymus DNA [11] = test: Binding affinity to calf thymus DNA assessed as thermal stabilization by thermal denaturation based UV-Visible absorption spectroscopic analysis; details: Bos taurus
MCF7 [12] = test: Antiproliferative activity against human MCF7 cells assessed as reduction in cell viability incubated for 72 hrs by MTT assay; type: functional, cell-based; details: MCF7, 72 h
Calf thymus DNA [13] = test: Binding affinity to calf thymus DNA assessed as binding constant by UV-Visible absorption spectroscopic analysis; details: Bos taurus
HepG2 = test: Antiproliferative activity against human HepG2 cells assessed as reduction in cell viability incubated for 72 hrs by MTT assay; type: functional, cell-based; details: HepG2, 72 h
MCF7 [14] = test: Induction of cell cycle arrest in human MCF7 cells assessed as increase in accumulation of cells at G1 phase at 0.75 uM measured after 24 hrs by propidium iodide/RNAse A staining based cell sorter analysis; type: functional
RNA [15] = test: Binding affinity to double stranded RNA (unknown origin) assessed as binding constant by UV-Visible absorption spectroscopic analysis; type: nucleic-acid assay
MCF7 [16] = test: Induction of cell cycle arrest in human MCF7 cells assessed as decrease in accumulation of cells at S phase at 0.75 uM measured after 24 hrs by propidium iodide/RNAse A staining based cell sorter analysis; type: functional
[17] = Selectivity index, ratio of IC50 for antiproliferative activity against human HEK293T cells to IC50 for antiproliferative activity against human MCF7 cells; type: toxicity, cell-based; details: HEK293T cells versus MCF7 cells, read-out: Ratio IC50
RNA [18] = test: Binding affinity to double stranded RNA (unknown origin) by CD spectroscopic analysis; type: nucleic-acid assay
[19] = Antiproliferative activity against human HEK293T cells assessed as reduction in cell viability incubated for 72 hrs by MTT assay; type: toxicity, cell-based, HEK-293T
MCF7 [20] = test: Induction of cell cycle arrest in human MCF7 cells assessed as increase in accumulation of cells at G2/M phase at 0.75 uM measured upto 48 hrs by propidium iodide/RNAse A staining based cell sorter analysis; type: functional
dsDNA [21] = test: Binding affinity to double stranded DNA (unknown origin) by CD spectroscopic analysis; type: nucleic-acid assay
Huh-7 [22] = test: Cytotoxicity against human Huh-7 cells infected with Plasmodium berghei sporozoites at 1 uM by alamar blue staining based assay; type: functional, cell-based
[23] = Drug uptake in human MCF7 cells at 1 uM incubated for 30 mins by Mitotracker Deep Red staining confocal microscopic analysis; type: ADME, cell-based; details: mcf7, 0.5 h
Plasmodium falciparum [24] = test: Antiplasmodial activity against erythrocytic stage of chloroquine-resistant Plasmodium falciparum Dd2 assessed as inhibition of parasite growth incubated for 3 days by HRP2-ELISA; type: functional, organism-based; details: Dd2, 72 h
Plasmodium falciparum [25] = test: Gametocytocidal activity against gametocytes of Plasmodium falciparum NF54 assessed as inhibition of ATP production measured after 48 hrs by Bac-TiterGlo analysis; type: functional, organism-based; details: NF54, 48 h
MCF7 [26] = test: Induction of cell cycle arrest in human MCF7 cells assessed as increase in accumulation of cells at G2/M phase at 4.5 uM measured upto 48 hrs by propidium iodide/RNAse A staining based cell sorter analysis; type: functional
[27] = Drug uptake in human MCF7 cells at 10 uM incubated for 30 mins by fluorescence microscopic analysis; type: ADME, cell-based; details: mcf7, 0.5 h
MCF7 [28] = test: Induction of cell cycle arrest in human MCF7 cells assessed as increase in accumulation of cells at G1 phase at 4.5 uM measured upto 48 hrs by propidium iodide/RNAse A staining based cell sorter analysis; type: functional
Plasmodium berghei [29] = test: Antiplasmodial activity against hepatic stage of Plasmodium berghei sporozoites infected in human Huh-7 cells assessed as inhibition of parasite growth incubated for 1 hr by bioluminescence assay; type: functional, organism-based; details: Huh-7, 1 h

Row | Compound | IC50 (SW-620) | selectivity ratio [2] | Ratio IC50 (Plasmodium falciparum [3]) | IC50 (HCT-116) | IC50 (Plasmodium falciparum [10]) | IC50 (MCF7 [12]) | IC50 (HepG2) | selectivity ratio [17] | IC50 at 72 h [19] | IC50 (Plasmodium falciparum [24]) | also measured
1 | COc1cc(NC(C)CCCNC(=O)NCc2nccc3c2[nH]c2ccccc23)c2ncccc2c1 (stereo not given) | 2.48 µM | 0.1 | 1.31 | 0.94 µM | 4.7 µM | 1.43 µM | 0.69 µM | < 0.48 | 0.68 µM | 6.13 µM | Activity (RNA [1]): inactive; Activity (MCF7 [4]): Active; Activity (dsDNA [5]): Active; Activity (Plasmodium berghei [6]): Active; Activity (RNA [7]): Active; Activity (Huh-7 [8]): Active; Activity (Plasmodium berghei [9]): Active; Activity (Calf thymus DNA [11]): inactive; log Ks (Calf thymus DNA [13]): 5.5; Activity (MCF7 [14]): Active; log Ks (RNA [15]): 4.2; Activity (MCF7 [16]): Active; Activity (RNA [18]): inactive; Activity (MCF7 [20]): inactive; Activity (dsDNA [21]): inactive; Activity (Huh-7 [22]): Active; Drug uptake [23]: Not Active
2 | COc1cc(NC(C)CCCNC(=O)NCCOc2ccc3c(c2)[nH]c2c(C)nccc23)c2ncccc2c1 (stereo not given) | 7.59 µM | 1.1 | 1.2 | 7.71 µM | 6.77 µM | 8.87 µM | 7.97 µM | 0.86 | 7.63 µM | 8.07 µM | –
3 | CC[C@H](C)[C@H](NC(=O)[C@H]([C@@H](C)CC)N(C)C(C)=O)C(=O)N[C@H](C(=O)N[C@@H](CC(C)C)C(=O)[C@@]1(C)CO1)[C@@H](C)O [EPOXOMYCIN] | – | – | – | – | – | – | – | – | – | – | IC50 (Plasmodium falciparum [25]): 0.0167 µM
4 | COc1cc(NC(C)CCCn2cc(Cn3c4cc(OC)ccc4c4ccnc(C)c43)nn2)c2ncccc2c1 (stereo not given) | > 50 µM | > 95.5 | 1.73 | 23.2 µM | 0.523 µM | 8.93 µM | > 50 µM | > 5.6 | > 50 µM | 0.906 µM | Activity (RNA [1]): inactive; Activity (MCF7 [26]): inactive; Activity (dsDNA [5]): Active; Activity (Plasmodium berghei [6]): Active; Activity (RNA [7]): Active; Activity (Plasmodium berghei [9]): Active; Activity (Calf thymus DNA [11]): inactive; Drug uptake [27]: Active; log Ks (Calf thymus DNA [13]): 5.5; log Ks (RNA [15]): 4.6; Activity (RNA [18]): inactive; Activity (MCF7 [28]): Active; Activity (dsDNA [21]): inactive; IC50 (Plasmodium berghei [29]): 1.46 µM
5 | O=c1[nH]cc(F)c(=O)[nH]1 [FLUOROURACIL] | – | – | – | 14.4 µM | – | 23.9 µM | 5.46 µM | 0.74 | 17.6 µM | – | –
6 | COc1cc(NC(C)CCCn2cc(COc3ccc4c(c3)[nH]c3c(C)nccc34)nn2)c2ncccc2c1 (stereo not given) | 6.99 µM | 36 | 1.67 | 7.31 µM | 0.211 µM | 5.93 µM | 7.87 µM | 1.28 | 7.62 µM | 0.353 µM | –
7 | COc1ccc2c(c1)[nH]c1c(C)nccc12 [HARMINE] | 7.32 µM | 2.5 | >3.36 | 7.64 µM | – | – | 14.9 µM | 1.55 | 21 µM | > 27.7 µM | –
8 | COc1cc(NC(C)CCCNC(=O)NCc2cc3c([nH]c4ccccc43)c(C)n2)c2ncccc2c1 (stereo not given) | 25 µM | > 20.8 | 0.98 | 27.2 µM | 2.4 µM | 11.7 µM | > 50 µM | > 4.29 | > 50 µM | 2.35 µM | –
